Data from US20260365696A1, “INHIBITORS OF PTP1B / NCK1 INTERACTION AND METHODS OF MAKING AND USING SAME” (Radella Pharmaceuticals LLC, priority 2023, published 2026).

Assays:
[1] = Microsomal metabolic stability; format: in vitro ADME; conditions: human liver microsomes 0.5 mg/mL, 1 μM, 37 °C
Experimental: Microsomal Metabolic Stability (human liver microsomes): Human liver microsomes (final protein concentration 0.5 mg/mL), 0.1 M phosphate buffer pH 7.4 and test compound MD20 (final substrate concentration 1 μM; final DMSO concentration 0.25%) were pre-incubated at 37 °C prior to the addition of NADPH (final concentration 1 mM) to initiate the reaction. A minus cofactor control incubation was included for each compound tested where 0.1 M phosphate buffer pH 7.4 was substituted for NADPH (“minus NADPH”).
Each compound was incubated for 0, 5, 15, 30 and 45 min. The control (minus NADPH) was incubated for 45 min only. The reactions were stopped by transferring incubate in to acetonitrile at the appropriate time points, in a 1:3 ratio. The termination plates were centrifuged at 3,000 rpm for 20 min at 4 °C to precipitate the protein. Following protein precipitation, the sample supernatants were combined in cassettes of up to 4 compounds, internal standard was added and samples were analyzed using Cyprotex generic LC-MS/MS conditions. The time point at which 30-70% of parent had degraded was then investigated at 3 different levels of metabolite profiling and/or identification. The intrinsic clearance (CLint) of the test compound was calculated.

db/db mice = assay: db/db genetic mouse model of diabetes and obesity; format: in vivo
Description: Animals: All animals were housed and tested following European (Directive on the Protection of Animals used for Scientific Purposes, 2010/63/EU) and UK Home Office regulations. Experiments were approved by the University Ethics Board and carried out in accordance with the Animal (Scientific Procedures) Act 1986 and following ARRIVE guidelines. Db/db male mice (~4 weeks old) were purchased from Jackson, USA. All mice received standard mouse chow diet and had ad libitum access to food and water and were kept in a 12 h light/dark cycle.
Treatments: Mice were assigned and counterbalanced according to their body weights in to the following groups: control PBS (n=10); MD18 at 15 mg/kg (n=7), 30 mg/kg (n=8), or 45 mg/kg (n=7); or MD20 at 15 mg/kg (n=9), 30 mg/kg (n=10) or 45 mg/kg (n=7). MD18 and MD20 were administered once daily via subcutaneous (SC) injection for 41 days, whereas control mice received a daily SC injection of vehicle (PBS). MD18 and MD20 were kept in −20 °C and dissolved in sterile phosphate buffered saline (PBS).
Body weights and body mass composition: Body weights were recorded twice weekly during the study, and fat mass and lean mass composition was analysed using an EchoMRI scanner (EchoMedical Systems, Houston, TX, U.S.A.).
Metabolic measurements: All animals were five-hour fasted before obtaining basal glucose measurements and GTT, ITT, and corresponding treatments were administered 1 hour before glucose measurements. Tail blood glucose was measured using AlphaTRAK 2 glucose strips and glucometer (Abbot, UK), or blood was collected and glucose assay (AB65333, Abcam) was performed where readings were too high to be recorded via glucometer. Human Actrapid Insulin (NovaNordisk) at 1 IU/kg dose was administered during ITT.
Serum and liver assays: Trunk-derived blood was collected from 5 h-fasted mice into serum separator microtubes and kept at −80 °C. Serum was used for insulin (#EZRMI-13K, Merck) and leptin (#90030, Crystal Chem) analyses.
Statistical analyses: Data were reported as means±SEM and analysed using one- or two-way ANOVA with Bonferroni post hoc tests, as appropriate. GraphPad Prism (V8, GraphPad Software, Inc., San Diego, California, USA) was used for statistical analyses. P-values <0.05 were considered significant.

GLUT4 = GLUT4 gene expression in adipose tissue of LDLR−/− mice (qPCR); format: in vivo, mouse; conditions: 30 mg/kg IP daily, vs control
Experimental: (§1) FIGS. 30A-30E are graphs showing expression of various genes in tissues of HFD-fed LDLR−/− mice following 6 weeks of daily IP administration of MD20 (30 mg/kg) or a vehicle control. Mice were fasted for 5 hours at the conclusion of the experiment, liver and white adipose tissue (“WAT”) samples were collected, and gene expression was measured by qRT-PCR. Expression of glucose transporter 4 (GLUT4; FIG. 30A) and stearoyl-CoA-desaturase 1 (SCD1; FIG. 30B) was measured in adipose tissue, and expression of Glucose-6-phosphatase (G6P; FIG. 30C), Activating Transcription Factor 4 (ATF4; FIG. 30D), and 3-hydroxy-3-methylglutaryl (HMGCS; FIG. 30E) was measured in liver tissue. Data represent mean±SEM; statistical differences were determined using two tailed student's t-test.
(§2) Gene expression analyses: Livers and adipose tissue were collected from 5 h-fasted animals and snap-frozen in liquid nitrogen. RNA was isolated from frozen liver tissue using TRIzole (Sigma, UK) and cDNA was synthesized from 1 μg RNA using bioscript cDNA synthesis kit (Bioline, UK), oligo (dT) 18 (SEQ ID NO: 170), and random hexamer primers.
(§3) Genes of interest were amplified by quantitative PCR (qPCR) using gene-specific primers and GoTaq qPCR master mix (Promega, Madison, WI, USA).

SCD1 = SCD1 gene expression in adipose tissue of LDLR−/− mice (qPCR); format: in vivo, mouse; conditions: 30 mg/kg IP daily, vs control
Experimental: as §1, §2, §3

G6Pase = G6Pase gene expression in liver of LDLR−/− mice (qPCR); format: in vivo, mouse; conditions: 30 mg/kg IP daily, vs control
Experimental: as §1, §2, §3

HMGCS = HMGCS gene expression in liver of LDLR−/− mice (qPCR); format: in vivo, mouse; conditions: 30 mg/kg IP daily, vs control
Experimental: as §1, §2, §3

With Ac-PRPPKR-NH2 [MD20, Ac-PRPPKR-NH2] the “intrinsic clearance (CL int)” value [1] was 4.90, the fasted insulin levels (db/db mice; 15 mg/kg SC daily, about 6 weeks, vs control) was “significant decrease in insulin levels” and the leptin levels (db/db mice; 30 mg/kg SC daily, about 6 weeks, vs control) was “significant decrease in leptin levels”. For the same substance, the basal glucose levels (db/db mice; 5-hour-fasted, SC daily, vs vehicle) was “No significant differences”, the body weight gain (db/db mice; 15, 30 or 45 mg/kg SC daily, significant overall interaction) was “inhibited body weight gain” and the “glucose clearance during GTT” value (db/db mice; SC daily, week 4, vs control, all doses) was “No significant differences in glucose clearance”. For the same substance, the “insulin tolerance test (ITT)” value (db/db mice; SC daily, week 6, 1 IU/kg insulin, vs control) was “did not detect any significant differences”, the “GLUT4 gene expression in adipose tissue” value (GLUT4) was “increased” and the “SCD1 expression in adipose tissue” value (SCD1) was “increased”. The “G6Pase gene expression in liver” value (G6Pase) was “decreased” and the HMGCS expression (HMGCS) was “upregulated”.
